Kd and IC50 data for 6 molecules are collected here from ChEMBL document CHEMBL3098089, “Probing the human estrogen receptor-α binding requirements for phenolic mono- and di-hydroxyl compounds: a combined synthesis, binding and docking study” (Bioorg Med Chem, 2014).

For orientation: Kd means the equilibrium constant for the complex coming apart. A lower Kd goes with higher affinity. For orientation: IC50 means the concentration that gives 50% inhibition.

Assay [1] concerns the target T1, Estrogen receptor (Homo sapiens, UniProt P03372).
T1 sequence (P03372 whole entry): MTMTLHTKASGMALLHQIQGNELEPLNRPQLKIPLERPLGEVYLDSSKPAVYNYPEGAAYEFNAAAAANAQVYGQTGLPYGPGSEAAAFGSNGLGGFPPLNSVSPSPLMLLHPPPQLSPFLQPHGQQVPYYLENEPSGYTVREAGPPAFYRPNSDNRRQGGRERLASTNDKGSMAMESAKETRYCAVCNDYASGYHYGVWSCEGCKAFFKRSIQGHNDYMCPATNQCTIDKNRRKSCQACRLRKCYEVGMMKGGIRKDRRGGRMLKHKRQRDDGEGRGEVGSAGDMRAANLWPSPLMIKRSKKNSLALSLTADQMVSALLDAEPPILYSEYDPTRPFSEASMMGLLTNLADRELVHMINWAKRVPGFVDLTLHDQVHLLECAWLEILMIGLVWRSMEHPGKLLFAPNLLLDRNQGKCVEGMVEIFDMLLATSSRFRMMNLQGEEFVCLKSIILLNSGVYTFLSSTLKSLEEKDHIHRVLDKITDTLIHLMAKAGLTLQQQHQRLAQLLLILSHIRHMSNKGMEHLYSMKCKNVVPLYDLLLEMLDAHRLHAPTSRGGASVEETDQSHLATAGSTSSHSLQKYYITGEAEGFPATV

Assay [2] addresses T2, Estrogen receptor beta (Homo sapiens, UniProt Q92731).
Assay [3] has as its target T2, Estrogen receptor beta. This is another data set of the same source.
Assay [4] addresses T1, Estrogen receptor. This is another data set of the same source.

A value given as a limit tells only on which side of the number the result lay.

T2 sequence (Q92731 whole entry): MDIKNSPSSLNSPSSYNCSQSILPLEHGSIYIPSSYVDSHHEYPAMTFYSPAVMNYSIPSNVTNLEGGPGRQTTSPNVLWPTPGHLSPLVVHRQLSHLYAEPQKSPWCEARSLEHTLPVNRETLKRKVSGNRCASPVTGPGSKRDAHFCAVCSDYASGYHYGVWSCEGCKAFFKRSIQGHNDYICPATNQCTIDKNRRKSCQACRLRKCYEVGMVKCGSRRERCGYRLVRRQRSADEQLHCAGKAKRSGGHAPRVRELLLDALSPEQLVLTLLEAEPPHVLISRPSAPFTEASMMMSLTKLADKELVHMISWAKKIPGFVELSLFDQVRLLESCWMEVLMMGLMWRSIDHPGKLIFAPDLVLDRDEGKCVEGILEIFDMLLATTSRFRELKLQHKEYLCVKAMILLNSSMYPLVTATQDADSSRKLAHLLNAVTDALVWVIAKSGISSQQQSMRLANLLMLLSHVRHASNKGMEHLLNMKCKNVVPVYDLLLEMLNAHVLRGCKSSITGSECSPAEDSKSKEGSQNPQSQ

Molecule `C[C@@H](CCO)C1=CC[C@H]2[C@@H]3CCc4cc(O)ccc4[C@H]3CC[C@]12C` displayed an equilibrium dissociation constant (Kd) in assay [1] of 320 nM. The IC50 in assay [2] amounted to 275 nM; in assay [3] it was 108 nM.

For `CCCOC(=O)[C@H]1CC[C@H]2[C@@H]3CCc4cc(O)ccc4[C@H]3CC[C@]12C`, the Kd in assay [1] turned out to be 320 nM. In assay [4], the IC50 worked out at 92 nM.

Take `CC[C@H](C)C1=CC[C@H]2[C@@H]3CCc4cc(O)ccc4[C@H]3CC[C@]12C`: in assay [1], the Kd was 160 nM. In addition, the figures for the IC50 in assay [2] and in assay [3] were 70 nM and 88 nM, respectively.

`CC1C[C@H](C)C2(CC[C@H]3[C@@H]4CCc5cc(O)ccc5[C@H]4CC[C@@]32C)O1` (stereo partly drawn): binding in assay [1] was put at a Kd of 160 nM. In addition, the IC50 came out at 484 nM in assay [4] and 111 nM in assay [3].

Molecule `C[C@]12CC[C@@H]3c4ccc(O)cc4CC[C@H]3[C@@H]1CC=C2CO` yielded an IC50 in assay [3] of 6.8 nM. That is a single-digit nanomolar value.

As to `OC[C@H]1CCC[C@@H](c2ccc(O)cc2)CC1` (racemic), the Kd in assay [1] is above 1000 nM.
